Values belong to the molecule of their own block, whether it stands above or below them.
How the values were obtained:
[1] = biological target: 5'-nucleotidase (Homo sapiens, UniProt P21589); experiment: Ecto-5'-Nucleotidase Inhibition Assay; conditions: pH 7.4; 37 °C
Description: (§1) The enzymatic assay of both human and rat ecto-5'-nucleotidase were performed with slight modifications in the previously described method. […] Aliquots of 50 μL of each reaction mixture was transferred into CE mini vial and hydrodynamically injected into the capillary by using pressure of 0.5 psi for 5s. The electrosmatic separation of substrate and product peaks occurred by applying voltage of 15 kV. The concentration of product i.e. adenosine was estimated by calculating the area under its absorbance peak at 260 nm.

[2] = biological target: T1, 5'-nucleotidase (Rattus norvegicus, UniProt P21588); experiment: Ecto-5'-Nucleotidase Inhibition Assay; conditions: pH 7.4; 37 °C
T1 sequence (P21588 whole entry): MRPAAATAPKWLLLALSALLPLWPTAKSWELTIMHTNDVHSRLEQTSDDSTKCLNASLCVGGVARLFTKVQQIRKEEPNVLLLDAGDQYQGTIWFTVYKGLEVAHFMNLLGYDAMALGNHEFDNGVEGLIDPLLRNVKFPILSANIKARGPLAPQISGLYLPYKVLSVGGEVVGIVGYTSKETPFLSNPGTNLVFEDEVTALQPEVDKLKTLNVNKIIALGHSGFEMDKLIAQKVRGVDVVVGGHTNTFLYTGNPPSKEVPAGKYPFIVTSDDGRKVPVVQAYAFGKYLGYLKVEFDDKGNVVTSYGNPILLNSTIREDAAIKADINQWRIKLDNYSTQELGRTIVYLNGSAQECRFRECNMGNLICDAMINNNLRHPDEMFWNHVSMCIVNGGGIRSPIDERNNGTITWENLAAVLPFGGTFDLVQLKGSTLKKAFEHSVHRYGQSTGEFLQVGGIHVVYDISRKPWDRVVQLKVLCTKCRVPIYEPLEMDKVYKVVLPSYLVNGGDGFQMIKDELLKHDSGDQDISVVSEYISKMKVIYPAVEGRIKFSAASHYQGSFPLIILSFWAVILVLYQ
Description: as §1

[3] = biological target: T2, Alkaline phosphatase, tissue-nonspecific isozyme (Bos taurus, UniProt P09487); experiment: Alkaline Phosphatase Inhibition Assay; conditions: pH 9.8; 37 °C
T2 sequence (P09487 whole entry): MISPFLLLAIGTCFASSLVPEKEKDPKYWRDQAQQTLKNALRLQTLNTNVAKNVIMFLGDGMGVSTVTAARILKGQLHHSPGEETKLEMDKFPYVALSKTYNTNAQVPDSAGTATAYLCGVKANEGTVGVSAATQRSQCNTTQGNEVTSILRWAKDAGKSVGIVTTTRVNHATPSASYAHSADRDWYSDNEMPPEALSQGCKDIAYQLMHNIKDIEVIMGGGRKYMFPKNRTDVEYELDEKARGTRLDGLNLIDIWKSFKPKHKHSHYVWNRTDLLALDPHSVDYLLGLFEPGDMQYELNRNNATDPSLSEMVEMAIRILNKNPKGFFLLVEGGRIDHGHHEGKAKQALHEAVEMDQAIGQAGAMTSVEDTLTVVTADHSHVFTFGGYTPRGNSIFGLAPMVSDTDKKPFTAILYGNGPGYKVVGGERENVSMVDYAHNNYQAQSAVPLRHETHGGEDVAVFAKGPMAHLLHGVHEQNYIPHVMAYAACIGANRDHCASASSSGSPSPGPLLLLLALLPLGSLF
Description: (§2) The assay conditions were optimized with some changes in formerly reported spectrophotometric method. The composition of assay buffer of pH 9.8 was as: […], 0.05 mM ZnCl2 and 2.5 mM MgCl2. All compounds were tested at the initial concentration of 0.2 mM. A total assay volume of 50 μL contained 10 μL of tested compound, followed by the addition of 20 μL of either b-TNAP (1:800 times diluted enzyme in assay buffer) or 20 μL of c-IAP (1:800 times diluted enzyme in same assay buffer). After incubating the reaction mixture for 3-5 minutes at 37 °C, pre-read was taken by measuring luminescence with the help of microplate reader (BioTek FLx800, Instruments, Inc. USA). After that, 20 μL of substrate (CDP-Star) at the concentration of (110 μM) was added to the reaction mixture. Then the reaction mixture was again incubated for 15-20 min at 37 °C and after read was taken to measure the change in the luminescence. Total activity control (without inhibitor or negative control) was used for comparison of the activity of each test compound. L-phenylalanine (at concentration of 4 mM per well) and Levamisole (at concentration of 2 mM per well) were used as reference standards against calf intestinal alkaline phosphatase (c-IAP) and bovine tissue-nonspecific alkaline phosphatase (b-TNAP) respectively.

[4] = biological target: Intestinal-type alkaline phosphatase (Bos taurus, UniProt P19111); experiment: Alkaline Phosphatase Inhibition Assay; conditions: pH 9.8; 37 °C
Chain of Intestinal-type alkaline phosphatase (P19111 whole entry): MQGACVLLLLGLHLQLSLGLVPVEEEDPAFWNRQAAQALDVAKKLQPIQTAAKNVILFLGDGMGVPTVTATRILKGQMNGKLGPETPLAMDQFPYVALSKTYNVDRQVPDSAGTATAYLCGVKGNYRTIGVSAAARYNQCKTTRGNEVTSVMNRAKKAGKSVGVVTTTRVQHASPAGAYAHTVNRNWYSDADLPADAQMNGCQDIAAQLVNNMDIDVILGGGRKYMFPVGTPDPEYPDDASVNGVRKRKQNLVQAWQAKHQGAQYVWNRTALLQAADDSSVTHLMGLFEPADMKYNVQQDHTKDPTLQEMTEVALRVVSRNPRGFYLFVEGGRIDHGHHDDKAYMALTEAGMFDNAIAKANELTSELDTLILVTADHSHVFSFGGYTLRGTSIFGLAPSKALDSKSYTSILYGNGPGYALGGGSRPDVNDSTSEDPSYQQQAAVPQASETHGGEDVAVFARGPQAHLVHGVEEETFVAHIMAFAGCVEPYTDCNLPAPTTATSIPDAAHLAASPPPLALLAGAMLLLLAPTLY
Description: as §2

Chain of 5'-nucleotidase (Homo sapiens, UniProt P21589) (P21589 whole entry): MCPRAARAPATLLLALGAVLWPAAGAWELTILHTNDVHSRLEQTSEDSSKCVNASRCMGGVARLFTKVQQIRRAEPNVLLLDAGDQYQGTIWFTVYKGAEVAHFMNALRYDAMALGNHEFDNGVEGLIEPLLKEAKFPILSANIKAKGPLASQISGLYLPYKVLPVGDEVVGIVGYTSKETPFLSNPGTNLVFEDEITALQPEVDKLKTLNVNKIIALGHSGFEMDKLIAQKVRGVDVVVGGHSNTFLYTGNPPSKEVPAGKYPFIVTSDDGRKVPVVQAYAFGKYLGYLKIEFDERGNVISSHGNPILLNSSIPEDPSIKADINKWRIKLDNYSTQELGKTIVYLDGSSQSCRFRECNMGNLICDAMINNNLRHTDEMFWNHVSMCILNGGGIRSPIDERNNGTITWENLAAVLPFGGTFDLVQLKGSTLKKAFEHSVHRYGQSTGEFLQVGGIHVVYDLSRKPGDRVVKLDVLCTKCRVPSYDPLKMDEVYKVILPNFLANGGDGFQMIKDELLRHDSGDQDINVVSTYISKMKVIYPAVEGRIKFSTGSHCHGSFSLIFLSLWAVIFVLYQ

SMILES: C/C(=N\NC(=O)c1ccncc1)N1N=C(c2ccc(F)cc2)CC1c1ccccc1 (stereo not given) [(E)-N'-(1-(3-(4-fluorophenyl)-5-phenyl-4,5-dihydro-1H-pyrazol-1yl)ethylidene)isonicotino hydrazide (3j)]
IC50 [1]: 190 nM
IC50 [2]: 360 nM
IC50 [3]: 1060 nM
IC50 [4]: 3980 nM

SMILES: O=C(N/N=C/c1ccccc1O)c1ccncc1 [(E)-N'-(2'-hydroxybenzylidene)isonicotinohydrazide (3e)]
IC50 [1]: 1340 nM
IC50 [2]: 450 nM
IC50 [4]: 1440 nM

SMILES: O=C(N/N=C/c1cccc([N+](=O)[O-])c1)c1ccncc1 [(E)-N'-(3'-Nitrobenzylidene)isonicotinohydrazide (3f)]
IC50 [1]: 1900 nM
IC50 [2]: 210 nM
IC50 [3]: 1820 nM
IC50 [4]: 7340 nM

SMILES: O=C(N/N=C/c1ccc(Br)cc1)c1ccncc1 [(E)-N'-(4'-Bromobenzylidene)isonicotinohydrazide (3b)]
IC50 [1]: 230 nM
IC50 [2]: 7130 nM
IC50 [3]: 4130 nM
IC50 [4]: 9720 nM

SMILES: O=C(N/N=C/c1ccc(Cl)cc1)c1ccncc1 [(E)-N'-(4'-Chlorobenzylidene)isonicotinohydrazide (3a)]
IC50 [1]: 1670 nM
IC50 [2]: 1080 nM
IC50 [4]: 670 nM

SMILES: O=C(N/N=C/c1ccc(F)cc1)c1ccncc1 [(E)-N'-(4'-Fluorobenzylidene)isonicotinohydrazide (3c)]
IC50 [1]: 6760 nM
IC50 [2]: 440 nM
IC50 [3]: 2260 nM
IC50 [4]: 17500 nM

IC50 [3]: 350 nM
IC50 [4]: 1920 nM
SMILES: COc1cc(/C=N/NC(=O)c2ccncc2)ccc1O [(E)-N'-(4'-Hydroxy-3-methoxybenzylidene)isonicotinohydrazide (3g)]

SMILES: COc1ccc(/C=N/NC(=O)c2ccncc2)cc1 [(E)-N'-(4'-Methoxybenzylidene)isonicotinohydrazide (3d)]
IC50 [1]: 13800 nM
IC50 [2]: 310 nM
IC50 [3]: 560 nM
IC50 [4]: 1740 nM

SMILES: O=C(N/N=C/c1cccnc1)c1ccncc1 [(E)-N'-(Pyridin-3'-ylmethylene)isonicotinohydrazide (3i)]
IC50 [1]: 210 nM
IC50 [2]: 3010 nM
IC50 [3]: 2430 nM
IC50 [4]: 1460 nM

SMILES: O=C(N/N=C/c1ccncc1)c1ccncc1 [(E)-N'-(Pyridin-4'-ylmethylene)isonicotinohydrazide (3h)]
IC50 [1]: 2120 nM
IC50 [2]: 2890 nM
IC50 [4]: 2460 nM

Reference: BindingDB's records for doi:10.1111/cbdd.12861 (Quaid-i-Azam University, 2017)
